Test results reported in ChEMBL document CHEMBL5143591, “Human Neuraminidases: Structures and Stereoselective Inhibitors” (J Med Chem, 2022).

Columns and labels:
[1] = target: T1, Sialidase-3 (Homo sapiens, UniProt Q9UQ49); assay: Inhibition of human NEU3
T1 sequence (Q9UQ49 whole entry): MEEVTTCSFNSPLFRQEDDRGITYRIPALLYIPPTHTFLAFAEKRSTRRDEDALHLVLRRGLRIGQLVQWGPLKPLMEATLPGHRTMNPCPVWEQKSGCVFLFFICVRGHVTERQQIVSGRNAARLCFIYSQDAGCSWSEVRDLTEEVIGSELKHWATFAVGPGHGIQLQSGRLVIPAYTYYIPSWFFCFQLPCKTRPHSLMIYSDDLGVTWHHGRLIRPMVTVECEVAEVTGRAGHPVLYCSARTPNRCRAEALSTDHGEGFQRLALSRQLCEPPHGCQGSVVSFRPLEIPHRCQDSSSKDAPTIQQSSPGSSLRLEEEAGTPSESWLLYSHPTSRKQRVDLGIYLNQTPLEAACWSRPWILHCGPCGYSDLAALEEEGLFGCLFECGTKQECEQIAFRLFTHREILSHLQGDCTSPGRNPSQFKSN

[2] = target: Sialidase-1 (Homo sapiens, UniProt Q99519); assay: Inhibition of human NEU1
[3] = target: T2, Sialidase-4 (Homo sapiens, UniProt Q8WWR8); assay: Inhibition of human NEU4
T2 sequence (Q8WWR8 whole entry): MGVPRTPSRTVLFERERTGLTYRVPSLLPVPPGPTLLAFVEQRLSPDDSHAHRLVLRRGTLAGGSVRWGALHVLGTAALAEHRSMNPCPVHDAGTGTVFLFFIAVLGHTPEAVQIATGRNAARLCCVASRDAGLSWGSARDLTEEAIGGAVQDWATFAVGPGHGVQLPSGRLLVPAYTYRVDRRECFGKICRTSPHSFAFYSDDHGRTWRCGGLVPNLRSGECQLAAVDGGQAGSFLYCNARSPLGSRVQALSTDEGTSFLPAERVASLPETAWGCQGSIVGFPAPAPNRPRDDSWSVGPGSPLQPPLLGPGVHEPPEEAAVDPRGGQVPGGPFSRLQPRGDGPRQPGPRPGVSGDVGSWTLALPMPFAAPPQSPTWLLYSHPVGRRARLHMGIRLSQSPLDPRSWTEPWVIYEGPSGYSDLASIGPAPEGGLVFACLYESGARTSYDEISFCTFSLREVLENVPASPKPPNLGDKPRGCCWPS

Measured: IC50

CC(=O)N[C@H]1[C@H]([C@H](O)[C@H](O)CO)O[C@](O)(C(=O)O)C[C@@H]1O
> 500 µM: all assays above
